Experiments:
Format in all cases: in vivo
A. retroflexus [1] = experiment: Herbicidal activity by field soil treatment (Test example 2); design: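 index 0 to 10 in 10% steps of herbicidal effect with 10 meaning complete death and 0 below 10%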; details: 1000 g effective component per hectare, day 21 after the treatment
In short: (§1)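 Pre-emergence soil spray: wettable-powder formulation in water at 1000 g active ingredient per hectare (1000 L/ha) onto freshly sown, soil-covered seeds in field soil. Scoring of herbicidal effect by defined criteria 21 days post-treatment, plants kept in a greenhouse.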

Indian millet [2] = experiment: as above; design: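 index 0 to 10 in 10% steps of herbicidal effect with 10 meaning complete death and 0 below 10%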; details: 1000 g effective component per hectare, day 21 after the treatment
In short: as §1

Echinochloa crus-galli [3] = experiment: as above; design: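 index 0 to 10 in 10% steps of herbicidal effect with 10 meaning complete death and 0 below 10%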; details: 1000 g effective component per hectare, day 21 after the treatment
In short: as §1

A. retroflexus [4] = experiment: Herbicidal activity by field foliage treatment (Test example 3); design: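 index 0 to 10 in 10% steps of herbicidal effect with 10 meaning complete death and 0 below 10%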; details: 1000 g effective component per hectare, day 14 after the treatment
In short: (§2)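 Scoring of herbicidal effect by set criteria took place 14 days post-spray. Plants had been raised 2 weeks in field soil under glass before whole-plant foliar application of diluted wettable powder (1000 g active component/ha, spray volume 1000 L/ha).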

Indian millet [5] = experiment: as above; design: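 index 0 to 10 in 10% steps of herbicidal effect with 10 meaning complete death and 0 below 10%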; details: 1000 g effective component per hectare, day 14 after the treatment
In short: as §2

Echinochloa crus-galli [6] = experiment: as above; design: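 index 0 to 10 in 10% steps of herbicidal effect with 10 meaning complete death and 0 below 10%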; details: 1000 g effective component per hectare, day 14 after the treatment
In short: (§3)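 Herbicidal effect was rated on day 14 following a foliar spray of 1000 g active ingredient per hectare, applied as water-diluted wettable powder at 1000 L/ha. Plants had been raised for 2 weeks in field soil under greenhouse conditions before spraying.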

Setaria viridis = experiment: as above; details: 1000 g effective component per hectare, day 14 after the treatment;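 note: index 0 to 10 in 10% steps of herbicidal effect with 10 meaning complete death and 0 below 10%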
In short: as §3

Echinochloa oryzicola = experiment: Herbicidal activity by paddy field soil treatment (Test Example 1); design: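 index 0 to 10 in 10% steps of herbicidal effect with 10 meaning complete death and 0 below 10%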; details: 1000 g of effective component per hectare, evaluated on day 21 after the treatment, criteria of Table 72
In short: (§4)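 Pre-emergence water-surface application one day after sowing into flooded (3 cm) paddy soil, dose 1000 g effective component per hectare from a diluted wettable powder. Plants kept in greenhouse and rated for herbicidal effect 21 days post-treatment.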

Scirpus juncoides Rocxb. = experiment: as above; design: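 index 0 to 10 in 10% steps of herbicidal effect with 10 meaning complete death and 0 below 10%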; details: applied on water surface, 1000 g of effective component per hectare, day 21 after the treatment
In short: as §4

Monochoria vaginalis = experiment: as above; design: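 index 0 to 10 in 10% steps of herbicidal effect with 10 meaning complete death and 0 below 10%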; details: 1000 g of effective component per hectare, evaluated on day 21 after the treatment, criteria of Table 72
In short: as §4

foxtail = experiment: Herbicidal activity by field soil treatment (Test example 2); details: 1000 g effective component per hectare, day 21 after the treatment;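 note: index 0 to 10 in 10% steps of herbicidal effect with 10 meaning complete death and 0 below 10%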
Protocol: [table] Test for Determining Herbicidal Activity by Field Soil Treatment A 80 cm^2 wide plastic pot was filled with a field soil and seeds of each of Echinochloa crus-galli, foxtail, Indian millet, and A. retroflexus were sowed and then covered with soil. The wettable powder produced with reference to the Formulation example 1 was diluted water, and applied on the soil surface by using a small sprayer in an amount of 1000 liters per hectare so that the effective component is 1000 g per hectare. After that, the plants were cultivated in a greenhouse, and on day 21 after the treatment, evaluation was made by the criteria described in Table 72 for determining the herbicidal effects.

Cn1nc(C(=O)C2=C(O)CCCC2=O)c(=O)n(C)c1=O [I-1]
herbicidal effect index, Amaranthus retroflexus (A. retroflexus [1]): 10
herbicidal effect index, Abutilon theophrasti (Indian millet [2]): 9
herbicidal effect index, Echinochloa crus-galli (Echinochloa crus-galli [3]): 8
herbicidal effect index, Amaranthus retroflexus (A. retroflexus [4]): 10
herbicidal effect index, Abutilon theophrasti (Indian millet [5]): 9
herbicidal effect index, Echinochloa crus-galli (Echinochloa crus-galli [6]): 8
herbicidal effect index, Setaria viridis (Setaria viridis): 8
Herbicidal effects index number, Echinochloa oryzicola (Echinochloa oryzicola): 10
herbicidal effect index, S. juncoides Rocxb. (Scirpus juncoides Rocxb.): 10
Herbicidal effects index number, Monochoria vaginalis (Monochoria vaginalis): 10
herbicidal effect index, Setaria viridis (foxtail): 7

CCn1c(=O)c(C(=O)C2=C(O)CCCC2=O)nn(C)c1=O [I-2]
herbicidal effect index, Amaranthus retroflexus (A. retroflexus [1]): 10
herbicidal effect index, Abutilon theophrasti (Indian millet [2]): 10
herbicidal effect index, Echinochloa crus-galli (Echinochloa crus-galli [3]): 10
herbicidal effect index, Amaranthus retroflexus (A. retroflexus [4]): 10
herbicidal effect index, Abutilon theophrasti (Indian millet [5]): 10
herbicidal effect index, Echinochloa crus-galli (Echinochloa crus-galli [6]): 9
herbicidal effect index, Setaria viridis (Setaria viridis): 10
Herbicidal effects index number, Echinochloa oryzicola (Echinochloa oryzicola): 10
herbicidal effect index, S. juncoides Rocxb. (Scirpus juncoides Rocxb.): 10
Herbicidal effects index number, Monochoria vaginalis (Monochoria vaginalis): 10
herbicidal effect index, Setaria viridis (foxtail): 7

CCCn1c(=O)c(C(=O)C2=C(O)CCCC2=O)nn(C)c1=O [I-3]
herbicidal effect index, Amaranthus retroflexus (A. retroflexus [1]): 10
herbicidal effect index, Abutilon theophrasti (Indian millet [2]): 10
herbicidal effect index, Echinochloa crus-galli (Echinochloa crus-galli [3]): 10
herbicidal effect index, Amaranthus retroflexus (A. retroflexus [4]): 9
herbicidal effect index, Abutilon theophrasti (Indian millet [5]): 9
herbicidal effect index, Echinochloa crus-galli (Echinochloa crus-galli [6]): 9
herbicidal effect index, Setaria viridis (Setaria viridis): 9
Herbicidal effects index number, Echinochloa oryzicola (Echinochloa oryzicola): 10
herbicidal effect index, S. juncoides Rocxb. (Scirpus juncoides Rocxb.): 10
Herbicidal effects index number, Monochoria vaginalis (Monochoria vaginalis): 10
herbicidal effect index, Setaria viridis (foxtail): 10

CC(C)n1c(=O)c(C(=O)C2=C(O)CCCC2=O)nn(C)c1=O [I-4]
herbicidal effect index, Amaranthus retroflexus (A. retroflexus [1]): 10
herbicidal effect index, Abutilon theophrasti (Indian millet [2]): 9
herbicidal effect index, Echinochloa crus-galli (Echinochloa crus-galli [3]): 9
herbicidal effect index, Amaranthus retroflexus (A. retroflexus [4]): 9
herbicidal effect index, Abutilon theophrasti (Indian millet [5]): 9
herbicidal effect index, Echinochloa crus-galli (Echinochloa crus-galli [6]): 9
herbicidal effect index, Setaria viridis (Setaria viridis): 9
Herbicidal effects index number, Echinochloa oryzicola (Echinochloa oryzicola): 9
herbicidal effect index, S. juncoides Rocxb. (Scirpus juncoides Rocxb.): 10
Herbicidal effects index number, Monochoria vaginalis (Monochoria vaginalis): 9
herbicidal effect index, Setaria viridis (foxtail): 9

CCCCn1c(=O)c(C(=O)C2=C(O)CCCC2=O)nn(C)c1=O [I-5]
herbicidal effect index, Amaranthus retroflexus (A. retroflexus [1]): 10
herbicidal effect index, Abutilon theophrasti (Indian millet [2]): 10
herbicidal effect index, Echinochloa crus-galli (Echinochloa crus-galli [3]): 10
herbicidal effect index, Amaranthus retroflexus (A. retroflexus [4]): 10
herbicidal effect index, Abutilon theophrasti (Indian millet [5]): 10
herbicidal effect index, Echinochloa crus-galli (Echinochloa crus-galli [6]): 10
herbicidal effect index, Setaria viridis (Setaria viridis): 10
Herbicidal effects index number, Echinochloa oryzicola (Echinochloa oryzicola): 10
herbicidal effect index, S. juncoides Rocxb. (Scirpus juncoides Rocxb.): 10
Herbicidal effects index number, Monochoria vaginalis (Monochoria vaginalis): 10
herbicidal effect index, Setaria viridis (foxtail): 7

Cn1nc(C(=O)C2=C(O)CCCC2=O)c(=O)n(CC(F)(F)F)c1=O [I-10]
herbicidal effect index, Amaranthus retroflexus (A. retroflexus [1]): 10
herbicidal effect index, Abutilon theophrasti (Indian millet [2]): 10
herbicidal effect index, Echinochloa crus-galli (Echinochloa crus-galli [3]): 10
herbicidal effect index, Amaranthus retroflexus (A. retroflexus [4]): 10
herbicidal effect index, Abutilon theophrasti (Indian millet [5]): 9
herbicidal effect index, Echinochloa crus-galli (Echinochloa crus-galli [6]): 8
herbicidal effect index, Setaria viridis (Setaria viridis): 7
Herbicidal effects index number, Echinochloa oryzicola (Echinochloa oryzicola): 10
herbicidal effect index, S. juncoides Rocxb. (Scirpus juncoides Rocxb.): 10
Herbicidal effects index number, Monochoria vaginalis (Monochoria vaginalis): 10
herbicidal effect index, Setaria viridis (foxtail): 10

C=CCn1c(=O)c(C(=O)C2=C(O)CCCC2=O)nn(C)c1=O [I-11]
herbicidal effect index, Amaranthus retroflexus (A. retroflexus [1]): 10
herbicidal effect index, Abutilon theophrasti (Indian millet [2]): 9
herbicidal effect index, Echinochloa crus-galli (Echinochloa crus-galli [3]): 10
herbicidal effect index, Amaranthus retroflexus (A. retroflexus [4]): 10
herbicidal effect index, Abutilon theophrasti (Indian millet [5]): 9
herbicidal effect index, Echinochloa crus-galli (Echinochloa crus-galli [6]): 9
herbicidal effect index, Setaria viridis (Setaria viridis): 9
Herbicidal effects index number, Echinochloa oryzicola (Echinochloa oryzicola): 10
herbicidal effect index, S. juncoides Rocxb. (Scirpus juncoides Rocxb.): 10
Herbicidal effects index number, Monochoria vaginalis (Monochoria vaginalis): 10
herbicidal effect index, Setaria viridis (foxtail): 7

C#CCn1c(=O)c(C(=O)C2=C(O)CCCC2=O)nn(C)c1=O [I-14]
herbicidal effect index, Amaranthus retroflexus (A. retroflexus [1]): 10
herbicidal effect index, Abutilon theophrasti (Indian millet [2]): 10
herbicidal effect index, Echinochloa crus-galli (Echinochloa crus-galli [3]): 10
herbicidal effect index, Amaranthus retroflexus (A. retroflexus [4]): 10
herbicidal effect index, Abutilon theophrasti (Indian millet [5]): 10
herbicidal effect index, Echinochloa crus-galli (Echinochloa crus-galli [6]): 9
herbicidal effect index, Setaria viridis (Setaria viridis): 10
Herbicidal effects index number, Echinochloa oryzicola (Echinochloa oryzicola): 10
herbicidal effect index, S. juncoides Rocxb. (Scirpus juncoides Rocxb.): 10
Herbicidal effects index number, Monochoria vaginalis (Monochoria vaginalis): 10
herbicidal effect index, Setaria viridis (foxtail): 10

Cn1nc(C(=O)C2=C(O)CCCC2=O)c(=O)n(C2CCCCC2)c1=O [I-19]
herbicidal effect index, Amaranthus retroflexus (A. retroflexus [1]): 8
herbicidal effect index, Echinochloa crus-galli (Echinochloa crus-galli [3]): 8
herbicidal effect index, Amaranthus retroflexus (A. retroflexus [4]): 10
herbicidal effect index, Abutilon theophrasti (Indian millet [5]): 10
herbicidal effect index, Echinochloa crus-galli (Echinochloa crus-galli [6]): 10
herbicidal effect index, Setaria viridis (Setaria viridis): 10
Herbicidal effects index number, Echinochloa oryzicola (Echinochloa oryzicola): 10
herbicidal effect index, S. juncoides Rocxb. (Scirpus juncoides Rocxb.): 10
Herbicidal effects index number, Monochoria vaginalis (Monochoria vaginalis): 10
herbicidal effect index, Setaria viridis (foxtail): 8

Cc1c(Cl)cccc1-n1c(=O)c(C(=O)C2=C(O)CCCC2=O)nn(C)c1=O [I-136]
herbicidal effect index, Amaranthus retroflexus (A. retroflexus [1]): 9
herbicidal effect index, Abutilon theophrasti (Indian millet [2]): 9
herbicidal effect index, Amaranthus retroflexus (A. retroflexus [4]): 10
herbicidal effect index, Abutilon theophrasti (Indian millet [5]): 9
herbicidal effect index, Echinochloa crus-galli (Echinochloa crus-galli [6]): 9
herbicidal effect index, Setaria viridis (Setaria viridis): 9
Herbicidal effects index number, Echinochloa oryzicola (Echinochloa oryzicola): 9
herbicidal effect index, S. juncoides Rocxb. (Scirpus juncoides Rocxb.): 10
Herbicidal effects index number, Monochoria vaginalis (Monochoria vaginalis): 10
herbicidal effect index, Setaria viridis (foxtail): 8

COc1cc(-n2c(=O)c(C(=O)C3=C(O)CCCC3=O)nn(C)c2=O)ccc1C [I-155]
herbicidal effect index, Amaranthus retroflexus (A. retroflexus [1]): 10
herbicidal effect index, Abutilon theophrasti (Indian millet [2]): 10
herbicidal effect index, Amaranthus retroflexus (A. retroflexus [4]): 10
herbicidal effect index, Abutilon theophrasti (Indian millet [5]): 10
herbicidal effect index, Echinochloa crus-galli (Echinochloa crus-galli [6]): 9
herbicidal effect index, Setaria viridis (Setaria viridis): 7
Herbicidal effects index number, Echinochloa oryzicola (Echinochloa oryzicola): 10
herbicidal effect index, S. juncoides Rocxb. (Scirpus juncoides Rocxb.): 10
Herbicidal effects index number, Monochoria vaginalis (Monochoria vaginalis): 10
herbicidal effect index, Setaria viridis (foxtail): 7

Cc1cncc(-n2c(=O)c(C(=O)C3=C(O)CCCC3=O)nn(C)c2=O)c1 [I-278]
herbicidal effect index, Amaranthus retroflexus (A. retroflexus [1]): 10
herbicidal effect index, Echinochloa crus-galli (Echinochloa crus-galli [3]): 9
herbicidal effect index, Amaranthus retroflexus (A. retroflexus [4]): 10
herbicidal effect index, Abutilon theophrasti (Indian millet [5]): 9
herbicidal effect index, Echinochloa crus-galli (Echinochloa crus-galli [6]): 10
herbicidal effect index, Setaria viridis (Setaria viridis): 10
Herbicidal effects index number, Echinochloa oryzicola (Echinochloa oryzicola): 8
herbicidal effect index, S. juncoides Rocxb. (Scirpus juncoides Rocxb.): 10
Herbicidal effects index number, Monochoria vaginalis (Monochoria vaginalis): 9
herbicidal effect index, Setaria viridis (foxtail): 9

Cn1nc(C(=O)C2=C(O)CCCC2=O)c(=O)n(CC(=O)OC(C)(C)C)c1=O [I-294]
herbicidal effect index, Amaranthus retroflexus (A. retroflexus [1]): 10
herbicidal effect index, Abutilon theophrasti (Indian millet [2]): 9
herbicidal effect index, Echinochloa crus-galli (Echinochloa crus-galli [3]): 9
herbicidal effect index, Amaranthus retroflexus (A. retroflexus [4]): 8
herbicidal effect index, Abutilon theophrasti (Indian millet [5]): 7
herbicidal effect index, Echinochloa crus-galli (Echinochloa crus-galli [6]): 9
Herbicidal effects index number, Echinochloa oryzicola (Echinochloa oryzicola): 9
herbicidal effect index, S. juncoides Rocxb. (Scirpus juncoides Rocxb.): 9
Herbicidal effects index number, Monochoria vaginalis (Monochoria vaginalis): 9
herbicidal effect index, Setaria viridis (foxtail): 7

COc1c(Cl)cc(-n2c(=O)c(C(=O)C3=C(O)CCCC3=O)nn(C)c2=O)cc1Cl [I-299]
herbicidal effect index, Amaranthus retroflexus (A. retroflexus [1]): 10
herbicidal effect index, Abutilon theophrasti (Indian millet [2]): 10
herbicidal effect index, Echinochloa crus-galli (Echinochloa crus-galli [3]): 9
herbicidal effect index, Amaranthus retroflexus (A. retroflexus [4]): 10
herbicidal effect index, Abutilon theophrasti (Indian millet [5]): 9
herbicidal effect index, Echinochloa crus-galli (Echinochloa crus-galli [6]): 8
Herbicidal effects index number, Echinochloa oryzicola (Echinochloa oryzicola): 10
herbicidal effect index, S. juncoides Rocxb. (Scirpus juncoides Rocxb.): 10
Herbicidal effects index number, Monochoria vaginalis (Monochoria vaginalis): 10
herbicidal effect index, Setaria viridis (foxtail): 10

Cc1ccc(-n2c(=O)c(C(=O)C3=C(O)C(C)(C)C(=O)C(C)(C)C3=O)nn(C)c2=O)c(C)c1 [VI-65]
herbicidal effect index, Amaranthus retroflexus (A. retroflexus [1]): 10
herbicidal effect index, Abutilon theophrasti (Indian millet [2]): 10
herbicidal effect index, Amaranthus retroflexus (A. retroflexus [4]): 10
herbicidal effect index, Abutilon theophrasti (Indian millet [5]): 10
herbicidal effect index, Echinochloa crus-galli (Echinochloa crus-galli [6]): 9
herbicidal effect index, Setaria viridis (Setaria viridis): 7
Herbicidal effects index number, Echinochloa oryzicola (Echinochloa oryzicola): 10
herbicidal effect index, S. juncoides Rocxb. (Scirpus juncoides Rocxb.): 10
Herbicidal effects index number, Monochoria vaginalis (Monochoria vaginalis): 10
herbicidal effect index, Setaria viridis (foxtail): 7

— patent US8969554B2, “6-acyl-1,2,4-triazine-3,5-dione derivative and herbicides” (Kumiai Chemical Industry Co., Ltd., priority 2010, dated 2015)
